Laboratory results taken from patent publication US12195439B1, “C1-substituted isopropylamine fused heterocyclic mescaline derivatives” (Enveric Biosciences Canada Inc., priority 2022, dated 2025).
pEC50, pKi: −log10 of the molar value. Like-named read-outs stand apart in the source and are kept apart here.

Assays:
[1] = molecular target: T1, MT1 receptor (Homo sapiens, UniProt P48039); experiment: Eurofins Cerep competition binding assay at MT1 receptor; details: for MT1, percent of control-specific binding: 10 μM test ligand, [125I]2-iodomelatonin, recombinant receptor from CHO cells
T1 construct: host or cells: CHO cells (membrane preparation)

[2] = molecular target: T2, serotonin transporter (SERT) (Homo sapiens, UniProt P31645); experiment: biochemical; assay type: binding; details: for inhibition at 10 µM: read-out: SERT, percent of control-specific binding; for SERT, percent of control-specific binding: 10 µM
T2 construct: host or cells: CHO cells (membrane preparation)

[3] = molecular target: T3, norepinephrine transporter (NET) (Homo sapiens, UniProt P23975); experiment: Eurofins Cerep competition binding assay at norepinephrine transporter; details: for inhibition at 10 µM: read-out: NET, percent of control-specific binding, 10 μM test ligand, [3H]nisoxetine, recombinant transporter from CHO cells; for NET, percent of control-specific binding: 10 μM test ligand, [3H]nisoxetine, recombinant transporter from CHO cells
T3 construct: host or cells: CHO cells (membrane preparation)

[4] = molecular target: T4, 5-HT7 receptor (Homo sapiens, UniProt P34969); experiment: Eurofins Cerep competition binding assay at 5-HT7 receptor; details: 10 μM test ligand, [3H]LSD, recombinant receptor from HEK-293 cells; for inhibition at 10 µM: read-out: HT7, percent of control-specific binding
T4 construct: host or cells: HEK-293 cells (membrane preparation)

[5] = molecular target: T5, 5-HT2B receptor (Homo sapiens, UniProt P41595); experiment: Eurofins Cerep competition binding assay at 5-HT2B receptor; details: 10 μM test ligand, [3H]mesulergine, recombinant receptor from CHO cells; for inhibition at 10 µM: read-out: HT2B, percent of control-specific binding
T5 construct: host or cells: CHO cells (membrane preparation)

[6] = molecular target: T6, 5-HT2C receptor (Homo sapiens, UniProt P28335); experiment: Eurofins Cerep competition binding assay at 5-HT2C receptor; details: 10 μM test ligand, [125I](±)DOI, recombinant receptor from HEK-293 cells; for inhibition at 10 µM: read-out: HT2C, percent of control-specific binding
T6 construct: host or cells: HEK-293 cells (membrane preparation)
T6 sequence (P28335 33-458): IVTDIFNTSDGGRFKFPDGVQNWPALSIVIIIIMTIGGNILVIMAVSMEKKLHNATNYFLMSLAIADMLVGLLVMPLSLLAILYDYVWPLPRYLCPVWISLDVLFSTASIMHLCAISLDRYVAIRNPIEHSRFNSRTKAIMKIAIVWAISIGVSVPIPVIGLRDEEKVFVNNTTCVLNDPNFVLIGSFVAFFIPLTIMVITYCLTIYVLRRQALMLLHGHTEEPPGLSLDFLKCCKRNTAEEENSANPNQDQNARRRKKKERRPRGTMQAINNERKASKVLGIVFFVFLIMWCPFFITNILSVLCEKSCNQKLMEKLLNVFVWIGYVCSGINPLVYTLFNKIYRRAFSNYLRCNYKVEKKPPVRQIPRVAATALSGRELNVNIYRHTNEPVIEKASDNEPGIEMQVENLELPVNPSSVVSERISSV

[7] = molecular target: T7, dopamine transporter (DAT) (Homo sapiens, UniProt Q01959); experiment: Eurofins Cerep competition binding assay at dopamine transporter; details: for inhibition at 10 µM: read-out: DAT, percent of control-specific binding, 10 μM test ligand, [3H]BTCP, recombinant transporter from CHO cells; for DAT, percent of control-specific binding: 10 μM test ligand, [3H]BTCP, recombinant transporter from CHO cells
T7 construct: host or cells: CHO cells (membrane preparation)

[8] = molecular target: T8, alpha2A receptor (Homo sapiens, UniProt P08913); experiment: Eurofins Cerep competition binding assay at alpha2A receptor; details: 10 μM test ligand, [3H]RX 821002, recombinant receptor from CHO cells; for inhibition at 10 µM: read-out: α-2A, percent of control-specific binding
T8 construct: host or cells: CHO cells (membrane preparation)
T8 sequence (P08913 1-465): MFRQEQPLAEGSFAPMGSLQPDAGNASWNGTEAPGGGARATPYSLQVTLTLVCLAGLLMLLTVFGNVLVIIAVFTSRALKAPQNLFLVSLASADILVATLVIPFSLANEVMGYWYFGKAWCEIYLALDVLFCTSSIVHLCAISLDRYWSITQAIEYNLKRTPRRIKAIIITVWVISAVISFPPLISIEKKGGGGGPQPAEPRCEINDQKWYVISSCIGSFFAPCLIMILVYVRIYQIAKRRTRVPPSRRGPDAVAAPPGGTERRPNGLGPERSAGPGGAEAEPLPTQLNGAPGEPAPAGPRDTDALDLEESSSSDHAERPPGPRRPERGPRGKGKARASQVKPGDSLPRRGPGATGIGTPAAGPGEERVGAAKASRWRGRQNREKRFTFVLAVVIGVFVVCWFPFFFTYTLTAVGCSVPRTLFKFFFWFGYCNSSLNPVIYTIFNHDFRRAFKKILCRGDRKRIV

[9] = molecular target: T9, 5-HT1A receptor (Homo sapiens, UniProt P08908); experiment: Eurofins Cerep competition binding assay at 5-HT1A receptor; details: 10 μM test ligand, [3H]8-OH-DPAT, recombinant receptor from HEK-293 cells; for inhibition at 10 µM: read-out: HT1A, percent of control-specific binding
T9 construct: purchased Perkin Elmer 6110501400UA
T9 sequence (P08908 1-422): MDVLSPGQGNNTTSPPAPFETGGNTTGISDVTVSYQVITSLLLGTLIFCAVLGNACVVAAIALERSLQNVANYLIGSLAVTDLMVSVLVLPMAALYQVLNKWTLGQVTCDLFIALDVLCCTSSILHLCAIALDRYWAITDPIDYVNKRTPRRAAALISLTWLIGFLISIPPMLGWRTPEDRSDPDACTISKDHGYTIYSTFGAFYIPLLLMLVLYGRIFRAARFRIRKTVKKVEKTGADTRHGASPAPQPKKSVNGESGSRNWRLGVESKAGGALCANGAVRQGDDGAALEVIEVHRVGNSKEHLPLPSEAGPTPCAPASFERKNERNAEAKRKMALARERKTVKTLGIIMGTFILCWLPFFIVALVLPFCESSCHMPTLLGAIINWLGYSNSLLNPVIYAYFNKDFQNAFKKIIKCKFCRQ

[10] = molecular target: T9, 5-HT1A receptor; experiment: 5-HT1A receptor functional cellular response (cAMP) assay; assay type: cell-based
[11] = molecular target: T9, 5-HT1A receptor; experiment: 5-HT1A receptor radioligand competition assay (SPA); assay type: binding; details: competition with 0.5 nM [3H]8-hydroxy-DPAT, membranes containing 5-HT1A
[12] = read-out: MT1, percent of control-specific binding, 10 μM test ligand, [125I]2-iodomelatonin, recombinant receptor from CHO cells
[13] = read-out: MT1, percent of control-specific binding

T7 sequence (Q01959 whole entry): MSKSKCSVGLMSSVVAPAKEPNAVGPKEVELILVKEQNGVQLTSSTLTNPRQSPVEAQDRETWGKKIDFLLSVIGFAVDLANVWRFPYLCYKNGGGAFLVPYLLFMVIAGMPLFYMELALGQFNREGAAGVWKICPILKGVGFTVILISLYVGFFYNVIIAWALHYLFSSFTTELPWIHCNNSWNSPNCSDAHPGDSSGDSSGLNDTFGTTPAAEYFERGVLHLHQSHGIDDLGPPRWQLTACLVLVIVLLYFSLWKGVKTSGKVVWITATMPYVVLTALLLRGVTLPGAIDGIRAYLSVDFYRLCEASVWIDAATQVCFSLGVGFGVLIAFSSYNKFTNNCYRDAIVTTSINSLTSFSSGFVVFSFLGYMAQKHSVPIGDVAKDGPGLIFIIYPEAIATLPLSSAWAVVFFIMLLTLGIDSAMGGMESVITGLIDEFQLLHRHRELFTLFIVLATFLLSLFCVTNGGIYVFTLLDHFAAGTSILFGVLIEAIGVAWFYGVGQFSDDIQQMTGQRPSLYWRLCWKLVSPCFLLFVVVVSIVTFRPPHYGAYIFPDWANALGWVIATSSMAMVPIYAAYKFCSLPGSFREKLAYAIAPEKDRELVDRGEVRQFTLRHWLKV
T1 sequence (P48039 whole entry): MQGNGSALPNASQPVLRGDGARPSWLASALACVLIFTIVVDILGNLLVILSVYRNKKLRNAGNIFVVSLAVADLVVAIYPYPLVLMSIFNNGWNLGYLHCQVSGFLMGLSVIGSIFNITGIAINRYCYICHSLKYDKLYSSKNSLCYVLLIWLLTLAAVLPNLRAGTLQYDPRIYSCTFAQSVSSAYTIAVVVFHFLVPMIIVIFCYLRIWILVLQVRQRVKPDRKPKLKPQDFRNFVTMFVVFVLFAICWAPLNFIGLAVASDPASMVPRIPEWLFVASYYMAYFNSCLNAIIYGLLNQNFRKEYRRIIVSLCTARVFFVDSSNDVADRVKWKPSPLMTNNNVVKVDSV
T3 sequence (P23975 whole entry): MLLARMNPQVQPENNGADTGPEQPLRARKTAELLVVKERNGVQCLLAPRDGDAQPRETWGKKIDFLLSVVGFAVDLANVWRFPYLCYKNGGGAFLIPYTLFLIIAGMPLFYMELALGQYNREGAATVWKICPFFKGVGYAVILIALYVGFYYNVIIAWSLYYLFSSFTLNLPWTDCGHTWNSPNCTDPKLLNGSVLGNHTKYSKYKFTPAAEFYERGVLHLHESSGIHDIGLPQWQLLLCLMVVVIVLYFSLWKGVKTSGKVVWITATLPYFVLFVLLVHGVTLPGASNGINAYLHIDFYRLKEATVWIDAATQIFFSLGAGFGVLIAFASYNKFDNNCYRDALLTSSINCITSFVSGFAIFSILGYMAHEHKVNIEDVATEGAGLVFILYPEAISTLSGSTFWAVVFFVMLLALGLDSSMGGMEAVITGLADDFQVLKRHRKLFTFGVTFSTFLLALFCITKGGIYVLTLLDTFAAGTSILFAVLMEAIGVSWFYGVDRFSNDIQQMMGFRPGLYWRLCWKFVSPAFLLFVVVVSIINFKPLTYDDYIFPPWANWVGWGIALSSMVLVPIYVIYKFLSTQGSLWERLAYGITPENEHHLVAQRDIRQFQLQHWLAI
T2 sequence (P31645 whole entry): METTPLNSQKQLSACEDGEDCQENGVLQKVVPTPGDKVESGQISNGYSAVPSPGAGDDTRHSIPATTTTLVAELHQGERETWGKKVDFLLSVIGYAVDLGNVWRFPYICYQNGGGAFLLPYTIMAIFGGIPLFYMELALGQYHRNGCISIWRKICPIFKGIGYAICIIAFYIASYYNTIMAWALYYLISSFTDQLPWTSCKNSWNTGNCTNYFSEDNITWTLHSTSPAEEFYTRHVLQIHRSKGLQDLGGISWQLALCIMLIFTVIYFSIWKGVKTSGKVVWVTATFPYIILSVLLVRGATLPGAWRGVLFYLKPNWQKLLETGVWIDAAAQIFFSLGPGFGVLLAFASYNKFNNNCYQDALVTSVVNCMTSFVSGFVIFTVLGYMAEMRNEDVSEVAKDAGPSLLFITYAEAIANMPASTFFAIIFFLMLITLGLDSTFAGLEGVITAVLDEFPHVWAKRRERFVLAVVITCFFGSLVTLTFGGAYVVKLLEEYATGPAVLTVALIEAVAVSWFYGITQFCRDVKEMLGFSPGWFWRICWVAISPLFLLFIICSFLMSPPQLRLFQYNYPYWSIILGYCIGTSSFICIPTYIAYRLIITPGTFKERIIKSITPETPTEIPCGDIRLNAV
T4 sequence (P34969 whole entry): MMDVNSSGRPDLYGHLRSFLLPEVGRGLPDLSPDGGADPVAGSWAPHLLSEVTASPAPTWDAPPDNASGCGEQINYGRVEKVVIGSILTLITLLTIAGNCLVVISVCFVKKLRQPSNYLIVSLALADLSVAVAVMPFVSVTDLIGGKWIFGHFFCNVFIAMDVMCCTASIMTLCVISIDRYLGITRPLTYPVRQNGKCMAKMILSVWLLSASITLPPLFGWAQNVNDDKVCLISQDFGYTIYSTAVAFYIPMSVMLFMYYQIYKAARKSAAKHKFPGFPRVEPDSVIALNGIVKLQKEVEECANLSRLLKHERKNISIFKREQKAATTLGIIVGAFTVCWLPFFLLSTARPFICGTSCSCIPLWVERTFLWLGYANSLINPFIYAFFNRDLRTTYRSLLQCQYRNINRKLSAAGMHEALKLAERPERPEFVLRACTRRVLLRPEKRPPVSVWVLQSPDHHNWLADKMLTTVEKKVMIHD
T5 sequence (P41595 whole entry): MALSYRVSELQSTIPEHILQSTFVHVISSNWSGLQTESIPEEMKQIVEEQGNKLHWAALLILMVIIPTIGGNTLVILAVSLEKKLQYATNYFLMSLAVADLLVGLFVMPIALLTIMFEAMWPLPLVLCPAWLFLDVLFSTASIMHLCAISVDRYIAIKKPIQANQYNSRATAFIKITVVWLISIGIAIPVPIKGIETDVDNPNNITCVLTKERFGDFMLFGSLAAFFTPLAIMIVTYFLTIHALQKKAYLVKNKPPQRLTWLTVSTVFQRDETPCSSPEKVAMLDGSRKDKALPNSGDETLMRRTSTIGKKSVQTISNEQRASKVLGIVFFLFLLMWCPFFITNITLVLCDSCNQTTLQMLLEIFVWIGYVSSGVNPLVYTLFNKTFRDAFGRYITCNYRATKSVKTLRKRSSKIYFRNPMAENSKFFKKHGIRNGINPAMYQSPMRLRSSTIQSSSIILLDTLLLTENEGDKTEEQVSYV

Row | SMILES | inhibition at 10 µM [1, 12] [%] | inhibition at 10 µM [3] [%] | inhibition at 10 µM [4] [%] | inhibition at 10 µM [5] [%] | inhibition at 10 µM [6] [%] | inhibition at 10 µM [7] [%] | inhibition at 10 µM [8] [%] | inhibition at 10 µM [9] [%] | also measured
1 | Cc1ccc(Sc2ccccc2N2CCNCC2)c(C)c1 [vortioxetine] | 26 | 99 | 100 | 97 | 99 | 90 | 62 |  | inhibition at 10 µM [2]: 101%
2 | COc1ccc2cccc(CCNC(C)=O)c2c1 [Agomelatine, agomelatine] |  | 1 | 20 | 93 | 92 | 1 | 2 | 58 | inhibition at 10 µM [1, 13]: 99%; inhibition at 10 µM [2]: 30%
3 | NCCc1c[nH]c2ccc(O)cc12 [serotonin] | 7 | -3 | 100 |  |  | 8 | 18 | 100 | 
4 | CC(C(F)c1ccc2c(c1)OCO2)N1CCCC1 (stereo not drawn) [D(I) as diast. (v)] |  |  |  |  |  |  |  |  | pEC50 [10]: < 3.00
5 | N#Cc1ccc2[nH]cc(CCCCN3CCN(c4ccc5oc(C(N)=O)cc5c4)CC3)c2c1 [Vilazodone, vilazodone] | 84 | 99 | 83 | 96 | 92 | 98 | 65 | 99 | inhibition at 10 µM [2]: 100%
6 | CC(NCc1ccccc1)C(C)c1ccc2c(c1)OCO2 (stereo not drawn) [Ex(VI) as diast. (xi) and (xii)] |  |  |  |  |  |  |  |  | pKi ([11]; 5-HT1A, Ki): 4.18
7 | CC(C(O)c1ccc2c(c1)OCO2)N(C)Cc1ccccc1 (single isomer, unassigned) [B(III) as diast. (iv)] |  |  |  |  |  |  |  |  | HT1A, percent of control-specific binding ([9]; 10 µM): 22%; MT1, percent of control-specific binding ([1]; 10 µM): 15%; pKi ([11]; 5-HT1A, Ki): 4.77; SERT, percent of control-specific binding [2]: 44%; NET, percent of control-specific binding ([3]; 10 µM): 25%; HT7, percent of control-specific binding ([4]; 10 µM): 23%; HT2B, percent of control-specific binding ([5]; 10 µM): 28%; HT2C, percent of control-specific binding ([6]; 10 µM): 14%; DAT, percent of control-specific binding ([7]; 10 µM): 76%; α-2A, percent of control-specific binding ([8]; 10 µM): 42%
8 | COc1cc(CC(C)N)c(OC)cc1Br (stereo not drawn) [DOB] |  |  |  |  |  |  |  |  | HT1A, percent of control-specific binding [9]: 75%; MT1, percent of control-specific binding [1]: −3%; SERT, percent of control-specific binding [2]: 53%; NET, percent of control-specific binding [3]: 6%; HT7, percent of control-specific binding [4]: 65%; HT2B, percent of control-specific binding [5]: 97%; DAT, percent of control-specific binding [7]: 3%; α-2A, percent of control-specific binding [8]: 66%
9 | CNCC[C@H](Oc1cccc2ccccc12)c1cccs1 [Duloxetine, duloxetine] | 23 |  |  | 95 | 92 |  | 54 | 95 | 
10 | O=c1n(CCCN2CCN(c3cccc(Cl)c3)CC2)nc2ccccn12 [Trazodone, trazodone] | 14 | -1 | 99 | 97 | 93 | 24 | 91 | 97 | 
11 | CN(C)CCc1c[nH]c2cccc(O)c12 [psilocin] |  |  |  |  |  |  |  |  | pEC50 [10]: 6.02
12 | COc1cc(CCN)c(OC)cc1Br [2C-B] |  |  |  |  |  |  |  |  | HT1A, percent of control-specific binding [9]: 96%; MT1, percent of control-specific binding [1]: 86%; SERT, percent of control-specific binding [2]: 42%; NET, percent of control-specific binding [3]: 13%; HT7, percent of control-specific binding [4]: 88%; pEC50 ([10]; CHO-K1/5-HT1A/Gα15 cells stimulated with 4 μM forskolin, reduction of intracellular cAMP, read-out: 5-HT1A, EC50): 5.23; HT2B, percent of control-specific binding [5]: 99%; DAT, percent of control-specific binding [7]: 5%; α-2A, percent of control-specific binding [8]: 88%
13 | COc1ccc2[nH]cc(CCNC(C)=O)c2c1 [Melatonin, melatonin] |  | -2 | 8 | 52 | 19 | 4 | -7 | 46 | inhibition at 10 µM [1, 13]: 98%
14 | C[S+](C)[O-] [DMSO, dimethylsulfoxide] |  |  |  |  |  |  |  |  | pKi ([11]; 5-HT1A, Ki): < 3.00
15 | CC(NC(C)(C)C)C(=O)c1cccc(Cl)c1 (stereo not drawn) [Bupropion, bupropion] | 83 |  | 4 | -2 | 1 | 92 | 2 | -1 | 
16 | CN(C)CCCN1c2ccccc2CCc2ccccc21 [Imipramine, imipramine] | 29 | 99 | 93 | 94 | 98 | 23 | 57 | 34 | inhibition at 10 µM [2]: 98%
17 | CC(C(O)c1ccc2c(c1)OCO2)N(C)Cc1ccccc1 (stereo not drawn) [B(III) as diast. (iv)] |  |  |  |  |  |  |  |  | pKi ([11]; 5-HT1A, Ki): 4.77
18 | CCOc1c(OC)cc(CCN)cc1OC [escaline] |  |  |  |  |  |  |  |  | HT1A, percent of control-specific binding [9]: 44%; MT1, percent of control-specific binding [1]: 0%; pKi ([11]; read-out: 5-HT1A, Ki): 4.91; SERT, percent of control-specific binding [2]: 0%; NET, percent of control-specific binding [3]: 6%; HT7, percent of control-specific binding [4]: 16%; HT2B, percent of control-specific binding [5]: 81%; HT2C, percent of control-specific binding [6]: 95%; DAT, percent of control-specific binding [7]: 0%; α-2A, percent of control-specific binding [8]: 45%
